pIC50: −log10 of the molar value.
Columns and labels:
[1] = molecular target: T1, human P2X3 receptor (Homo sapiens, UniProt P56373); test: Calcium luminescence measurement: human P2X3 receptor activity inhibition (CHO-K1 cells, photoprotein readout, FLEXSTATION); format: cell-based; settings: CHO-K1 cells co-expressing human P2X3 and Ca2+ sensitive photoprotein; agonist α,β-Met-ATP; read-out: h-P2X3 IC50
T1 construct: expressed in transfected cells; host or cells: CHO-K1
T1 sequence (P56373 1-397): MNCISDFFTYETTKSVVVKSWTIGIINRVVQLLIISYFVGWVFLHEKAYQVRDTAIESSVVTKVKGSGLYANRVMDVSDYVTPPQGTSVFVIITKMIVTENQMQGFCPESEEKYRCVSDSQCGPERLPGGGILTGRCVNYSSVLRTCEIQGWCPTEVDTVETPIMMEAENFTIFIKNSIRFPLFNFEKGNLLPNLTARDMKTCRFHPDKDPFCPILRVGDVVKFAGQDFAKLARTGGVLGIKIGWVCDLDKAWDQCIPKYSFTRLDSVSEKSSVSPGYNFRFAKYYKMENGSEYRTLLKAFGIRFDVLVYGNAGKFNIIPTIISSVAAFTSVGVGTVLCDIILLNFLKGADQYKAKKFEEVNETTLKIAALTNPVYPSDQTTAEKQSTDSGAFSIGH
Procedure: Determination of human P2X3 receptor activity inhibition
The assay for the human purinergic P2RX3 receptor has been adapted to the internal screening instrumentation using the FLEXSTATION as reader and a photoprotein as luminescent readout. The assay consists of CHO-K1 cells recombinantly co-expressing the human P2rx3 receptor and a Ca^2+ sensitive photoprotein. Cells are maintained in DMEM F-12 (1:1) mixture (LONZA cat. n° BE04-687F/U1) supplemented with 9 mL of 100 mM Sodium Pyruvate (LONZA cat. n° BE13-115E), 29 mL of 7.5% Sodium Bicarbonate (LONZA cat. n° BE17-613E), 5.5 mL of 1 M Hepes (LONZA cat. n° BE17-737E), 5 mL of 100X Penicillin/Streptomycin mixture (LONZA cat. n° DE17-602E) and 50 mL of Fetal Bovine Serum (Sigma cat. n° F7524), 1 mg/mL G418 disulfate salt (Sigma cat. n° G8168) and 5 µg/ml Puromycin dihydrochloride (Sigma cat. n° P9620). Standard propagation conditions consist of seeding in a P75 flask twice a week, recovering about 20×10^6 cells, corresponding to about 80% confluency. Cells were seeded into black-walled clear bottom 96 well plates at a density of 40000 cells/well in a complete medium. After 24 h the culture medium was replaced with 200 µL/well of coelenterazine in Tyrode's buffer (Standard Tyrode's buffer: in house solution, 130 mM NaCl, 5 mM KCl, 2 mM CaCl2, 5 mM NaHCO3, 1 mM MgCl2, 20 mM HEPES, pH 7.4). Coelenterazine was purchased from BIOSYNTH (cat. n° C-7001). 10 mM stock solution was prepared in DMSO and glutathione and stored at -20° C. The plates were incubated for 4 hours at 37°C, and injected with 10 µL/well of test compounds at 25X concentration in Tyrode's buffer. After 4 minutes a second injection of 50 µL/well of 5X α,β-Met-ATP in Tyrode's buffer (α,β-Met-ATP: from Tocris (cat. n° 3209), was dissolved at 100 mM in water and stored in aliquots at -20°C) was performed and the signal of the emitted luminescence was recorded by FLEXSTATION III (Molecular Devices). […]
The inhibition curves of the tested compounds at cloned P2X3 receptor were determined by nonlinear regression analysis using software Prism 5.0 (Graphpad, San Diego, CA). The IC50 values and pseudo-Hill slope coefficients were estimated by the program.

[2] = molecular target: T2, human P2X2/3 receptor (Homo sapiens, UniProt P56373+Q9UBL9); test: Calcium fluorescence measurement: human P2X2/3 receptor activity inhibition (CHO-K1 cells, Fluo-8 NoWash, […]); format: cell-based; settings: for pIC50: CHO-K1 cells expressing human P2RX2/X3 channel, 10µM α,β-Met-ATP, read-out: h-P2X2/3 IC50; for Selectivity: ratio of IC50 of P2X2/3/ P2X3 receptors
T2 construct: expressed in transfected cells; host or cells: CHO-K1
T2 sequence (P56373 1-397): T1 sequence (P56373 1-397)
T2 sequence (Q9UBL9 1-471): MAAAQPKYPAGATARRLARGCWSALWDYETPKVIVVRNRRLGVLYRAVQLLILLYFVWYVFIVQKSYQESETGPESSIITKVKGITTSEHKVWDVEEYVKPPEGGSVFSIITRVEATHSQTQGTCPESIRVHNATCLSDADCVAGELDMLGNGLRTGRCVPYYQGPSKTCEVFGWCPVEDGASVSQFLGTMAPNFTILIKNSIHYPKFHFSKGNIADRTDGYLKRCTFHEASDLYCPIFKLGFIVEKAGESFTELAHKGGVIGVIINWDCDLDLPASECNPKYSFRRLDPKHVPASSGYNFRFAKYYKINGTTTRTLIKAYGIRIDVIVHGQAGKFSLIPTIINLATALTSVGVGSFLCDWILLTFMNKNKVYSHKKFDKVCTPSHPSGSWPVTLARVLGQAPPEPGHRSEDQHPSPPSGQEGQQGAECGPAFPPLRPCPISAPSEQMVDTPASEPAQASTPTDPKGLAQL
Procedure: Determination of human P2X2/3 receptor activity inhibition
The assay for the human P2RX2/X3 has been evaluated by the screening instrumentation using the […] as reader and the FLUO8-NoWash dye as fluorescent readout for calcium detection.
CHO-K1 cells recombinantly expressing the human P2RX2/X3 channel are maintained in DMEM F-12 (1:1) mixture (LONZA cat. n°: BE04-687F/U1) supplemented with 5 mL of 100 mM Sodium Pyruvate (LONZA cat. n° BE13-115E), 25 mL of 7.5% Sodium Bicarbonate (LONZA cat. n° BE17-613E), 6.5 mL of 1M Hepes (LONZA cat. n° BE17-737E), 5 mL of 100X Penicillin/Streptomycin mixture (LONZA cat. n° DE17-602E) and 50 mL of Fetal Bovine Serum (Sigma cat. n° F7524), 5 µg/mL Puromycin dihydrochloride (Sigma cat. n° P9620) and 1 mg/ml G418 disulfate salt (Sigma cat. n° G8168).
Cells were seeded into black-walled clear bottom 384 Multiwell plates at a density of 10.000 cells/well in complete medium. After 24 h the culture medium was replaced with 20 µL/well of Fluo-8 NoWash calcium sensitive dye (AAT Bioquest cat. n° 36316) diluted in Tyrode's buffer (Standard Tyrode's buffer: in house solution, 130 mM NaCl, 5 mM KCl, 2 mM CaCl2, 5 mM NaHCO3, 1 mM MgCl2, 20 mM HEPES, pH 7.4).
The plates were incubated for 1 hours at 37°C and injected with 10 µL/well of test compounds at 3X concentration in Tyrode's buffer with the […]. After 5 minutes a second injection of 15 µL/well of 10µM α,β-Met-ATP in Tyrode's buffer (α,β-Met-ATP: from Tocris cat. n° 3209) was performed and the signal of the emitted fluorescence was recorded by […] (Molecular Devices).
The selectivity is expressed as the ratio of IC50 of P2X2/3/ P2X3 receptors. Table 8: Human P2X3 and h-P2X2/3 receptor antagonist activity for selected compounds of the invention.

[3] = system: C57BL/6J mice; test: Scratching model: inhibition of ATP induced pruritus in mouse; format: in vivo; settings: dose inhibiting the 35% of number of bouts, intraperitoneally 30 min before α,β-meATP 200 µg/50 µL intradermal, bouts counted for 30 minutes
Procedure: C57BL/6J mice, Hartley Guinea pigs and Sprague-Dawley Rats from Charles River Italy were used in the experiments. Animals were housed with free access to food and water and maintained on a forced 12 hr light-dark cycle at 22-24°C for at least one week before the experiments were carried out. The animals were handled according to internationally accepted principles for care of laboratory animals (Directive 2010/63/EU of the European Parliament and of the Council of 22 September 2010).
"Scratchng model" - Inhibition of ATP induced pruritus in mouse
Mice were shaved at the rostral back the day before injection. The day of the experiment, an intradermal injection of the irritant agent α,β-meATP 200 µg/50 µL (Sigma, Italy) into the skin was performed. The hind limb scratching behavior directed toward the injection site, was recorded. One bout was defined as the lifting of the hindlimb toward the injection site and then placing the limb back on the floor. The number of bouts were counted for a period of 30 minutes. The Example 22 compound investigated was injected intraperitoneally 30 min before the administration of the irritant agent. (Fig. 2)
In the scratching model the results are presented as mean ± SEM of the values. Statistical analysis was performed using one-way ANOVA and Dunnet's test for multiple comparisons. The ED35 of the tested compounds was determined by linear regression analysis of bouts (Graphpad v5).

| Structure (SMILES) | pIC50 [1] | pIC50 [2] | Selectivity [2] | ED35 [3] |
| --- | --- | --- | --- | --- |
| CC(C)(C)c1nnc2c3nnc(N4CCOCC4)cc3n(Cc3ccc(Cl)cc3)c(=O)n12 [Example 44, 3-tert-Butyl-6-[(4-chlorophenyl)methyl]-8-(morpholin-4-yl)[1,2,4]triazolo[4',3': 1,6]pyrimido[5,4-c]pyridazin-5(6H)-one] | 8.17 | 5.41 | 582 | 9.06 mg/kg |
| COC(C)(C)C1CN2C(=O)N(Cc3ccc(Cl)cc3)c3cc(N4CCOCC4)cnc3C2=N1 (stereo not drawn) [Example 5, 6-(4-Chlorobenzyl)-2-(2-methoxypropan-2-yl)-8-(morpholin-4-yl)-2,6-dihydroimidazo[1,2-c]pyrido[2,3-e]pyrimidin-5(3H)-one] | 6.95 | 4.72 | 170 |  |
| CC(C)(C)C1C(=O)N=C2c3ncc(N4CCOCC4)cc3N(Cc3ccc(Cl)cc3)C(=O)N21 (stereo not drawn) [Example 21] | 7.17 | 5.46 | 51 |  |
| CC(C)C1CN2C(=O)N(CC(=O)Nc3ccc(F)cn3)c3cc(N4CCOCC4)cnc3C2=N1 (stereo not drawn) [Example 6, N-(5-Fluoropyridin-2-yl)-2-[8-(morpholin-4-yl)-5-oxo-2-(propan-2-yl)-2,3-dihydroimidazo[1,2-c]pyrido[2,3-e]pyrimidin-6(5H)-yl]acetamide] | 7.47 | 6.66 | 6.5 |  |
| CC(C)C1CN2C(=O)N(Cc3ccc(Cl)cc3)c3cc(N4CCOCC4)cnc3C2=N1 (racemic) [Example 9, 6-[(4-Chlorophenyl)methyl]-8-(morpholin-4-yl)-2-(propan-2-yl)-2,6-dihydroimidazo[1,2-c]pyrido[2,3-e]pyrimidin-5(3H)-one] | 6.78 | 5.13 | 44 |  |
| CC(=O)N1CCN(c2cnc3c(c2)n(Cc2ccc(Cl)cc2)c(=O)n2c(C(C)(C)C)nnc32)CC1 [Example 34, 8-(4-Acetylpiperazin-1-yl)-3-tert-butyl-6-[(4-chlorophenyl)methyl]pyrido[2,3-e][1,2,4]triazolo[4,3-c]pyrimidin-5(6H)-one] | 7.37 | < 4.52 | >697 | 12.42 mg/kg |
| CC(C)(C)c1nnc2c3ncc(N4CC[C@@H](O)C4)cc3n(Cc3ccc(Cl)cc3)c(=O)n12 [Example 43, 3-tert-Butyl-6-[(4-chlorophenyl)methyl]-8-[(3R)-3-hydroxypyrrolidin-1-yl]pyrido[2,3-e][1,2,4]triazolo[4,3-c]pyrimidin-5(6H)-one] | 7.17 | < 4.52 | >444 |  |
| COc1ccc(Cn2c(=O)n3c(C(C)(C)C)nnc3c3ncc(N4CCCCC4)cc32)cc1 [Example 38, 3-tert-Butyl-6-[(4-methoxyphenyl)methyl]-8-(piperidin-1-yl)pyrido[2,3-e][1,2,4]triazolo[4,3-c]pyrimidin-5(6H)-one] | 7.30 | 4.70 | >392 |  |
| CC(C)C1C(=O)N=C2c3nnc(N4CCOCC4)cc3N(Cc3ccc(Cl)cc3)C(=O)N21 (stereo not drawn) [Example 28, 5-[(4-Chlorophenyl)methyl]-3-(morpholin-4-yl)-8-(propan-2-yl)imidazo[1',2':1,6]pyrimido[5,4-c]pyridazine-6,9(5H,8H)-dione] | 7.78 | < 4.52 | >1800 | 22.54 mg/kg |
| COc1ccc(Cn2c(=O)n3c(C(C)(C)C)nnc3c3ncc(N4CCNCC4)cc32)cc1 [Example 35, 3-tert-Butyl-6-[(4-methoxyphenyl)methyl] -8-(piperazin-1-yl)pyrido[2,3-e][1,2,4]triazolo[4,3-c]pyrimidin-5(6H)-one] | 6.48 | < 4.52 | >90 |  |
| CN(C)c1nnc2c3nnc(N4CCOCC4)cc3n(Cc3ccc(Cl)cc3)c(=O)n12 [Example 50, 6-[(4-Chlorophenyl)methyl] -3 - (dimethylamino)-8-(morpholin-4-yl)[1,2,4]triazolo[4',3': 1,6]pyrimido[5,4-c]pyridazin-5(6H)-one] | 7.01 | < 4.52 | >304 |  |
